Assays:
[1] = tested on: PPAR luciferase reporter (PPRE-x3-TK-luc); experiment: PPAR luciferase reporter (PPRE-x3-TK-luc) in astrocytes; format: cell-based, mouse; conditions: different doses of aspirin, 4 h
Procedure: (§1) FIG. 14(A)-(B) illustrates activation of PPARα by aspirin in primary mouse astrocytes. 14(A) Cells were treated with 5 μM aspirin for different min intervals followed by isolation of nuclear extracts and electrophoretic mobility shift assay for monitoring DNA-binding activity of PPARα using PPARα-binding site of the Tfeb promoter as a probe. 14(B) Astrocytes isolated from wild type, PPARα (−/−) and PPARβ (−/−) mice were transfected with PPAR luciferase reporter (PPRE-x3-TK-luc) plasmid and after 24 h of transfection, cells were stimulated with different doses of aspirin. After 4 h, firefly luciferase activity was measured in total cell extracts. Results are mean +SD of three different experiments. ^ap<0.001 vs control.

TPP1 [2] = experiment: TPP1 protein by Western blot in primary mouse astrocytes; format: cell-based
Procedure: (§2) 12(A) Cells were treated with different concentrations of aspirin for 24 h under serum-free condition followed by Western blot for TPP1. 12(B) Cells were treated with 5 μM aspirin for different time periods under serum-free condition followed by Western blot for TPP1. Actin was run as a house keeping molecule. 12(C) Cells were treated with different concentrations of aspirin for 24 h under serum-free condition followed by TPP1 activity assay using cell extract containing 5 μg of total protein and Ala-Ala-Phe 7-amido-4-methylcoumarin as substrate. Results represent three independent experiments.
Immunoblotting: Western blotting was conducted as described earlier (31, 32) with modifications. Briefly, cells were scraped in 1× RIPA buffer, protein was measured using Bradford reagent and sodium dodecyl sulfate (SDS) buffer was added and electrophoresed on NuPAGE® Novex® 4-12% Bis-Tris gels (Invitrogen) and proteins transferred onto a nitrocellulose membrane (Bio-Rad) using the Thermo-Pierce Fast Semi-Dry Blotter.

TPP1 [3] = experiment: TPP1 activity assay on cell extract of primary mouse astrocytes; format: cell-based; conditions: 24 h
Procedure: as §2

PPARα = target: T1, PPARα (Mus musculus, UniProt P23204); experiment: Electrophoretic mobility shift assay of DNA-binding activity of PPARα; format: cell-based; conditions: astrocytes, 5 μM aspirin, different min intervals
T1 construct: endogenous in cells; host or cells: primary mouse astrocytes (nuclear extracts)
T1 sequence (P23204 1-468): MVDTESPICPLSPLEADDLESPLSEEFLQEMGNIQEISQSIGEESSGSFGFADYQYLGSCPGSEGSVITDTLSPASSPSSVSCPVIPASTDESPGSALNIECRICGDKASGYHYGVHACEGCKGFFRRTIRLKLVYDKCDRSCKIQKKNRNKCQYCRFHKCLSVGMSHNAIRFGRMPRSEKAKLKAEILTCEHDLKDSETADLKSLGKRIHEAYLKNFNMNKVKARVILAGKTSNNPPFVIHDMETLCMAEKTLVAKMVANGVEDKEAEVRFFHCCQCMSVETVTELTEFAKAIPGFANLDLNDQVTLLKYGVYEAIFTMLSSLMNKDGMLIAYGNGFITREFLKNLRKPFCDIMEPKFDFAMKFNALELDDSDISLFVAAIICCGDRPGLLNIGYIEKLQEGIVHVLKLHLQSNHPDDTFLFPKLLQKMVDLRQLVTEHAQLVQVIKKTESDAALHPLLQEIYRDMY
T1 sequence (P28700 1-467 partner): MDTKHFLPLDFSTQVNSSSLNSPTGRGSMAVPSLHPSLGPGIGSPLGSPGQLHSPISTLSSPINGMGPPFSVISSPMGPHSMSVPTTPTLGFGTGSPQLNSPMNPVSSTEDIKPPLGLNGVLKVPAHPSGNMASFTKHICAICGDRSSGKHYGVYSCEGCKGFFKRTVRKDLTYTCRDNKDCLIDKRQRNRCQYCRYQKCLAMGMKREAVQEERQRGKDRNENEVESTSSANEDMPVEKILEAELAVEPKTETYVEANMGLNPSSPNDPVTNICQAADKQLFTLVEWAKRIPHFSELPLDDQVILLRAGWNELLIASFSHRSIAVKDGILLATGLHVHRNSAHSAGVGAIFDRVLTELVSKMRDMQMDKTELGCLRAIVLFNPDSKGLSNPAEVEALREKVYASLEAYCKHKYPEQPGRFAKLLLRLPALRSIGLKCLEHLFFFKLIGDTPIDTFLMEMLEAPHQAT
Procedure: as §1

In the case of `CC(=O)Oc1ccccc1C(=O)O` [aspirin], the PPRE-driven luciferase activity ([1]; PPARα (−/−) astrocytes) is reported as “not PPARα (−/−)”, the PPRE-driven luciferase activity ([1]; PPARβ (−/−) astrocytes) is reported as “increased PPRE-driven luciferase activity” and the PPRE-driven luciferase activity ([1]; WT astrocytes) is reported as “increased PPRE-driven luciferase activity”. The “earliest time at which increase in TPP1 protein was evident” value (TPP1 [2]; 5 μM aspirin) was 2 h, the “time of maximum increase in TPP1 protein” value (TPP1 [2]; 5 μM aspirin) was 12 h and the “TPP1 protein (Western blot), dose” value (TPP1 [2]; aspirin 2 and 5 μM, 24 h) was “increase in TPP1 protein”. For the same compound, the TPP1 activity (TPP1 [3]; aspirin 10 μM) was “not 10 μM”, the TPP1 activity (TPP1 [3]; aspirin 2 and 5 μM) was “increase in TPP1 activity” and the “DNA-binding activity of PPARα (EMSA)” value (PPARα) was “time-dependent increase in PPARα activation”.
